Measured values: patent US9029559B2, “Substituted 3-heteroaroylamino-propionic acid derivatives and their use as pharmaceuticals” (SANOFI, priority 2011, dated 2015)

Biological target: Recombinant human cathepsin A (Homo sapiens (Human), UniProt P10619)
Experiment: Cathepsin A inhibitory activity (cleavage of Bodipy FL-labeled bradykinin, microfluidic capillary electrophoresis)
Assay type: biochemical
Conditions: read-out: Activity (IC50, cathepsin A inhibitory activity)

Recombinant human cathepsin A, sequence (P10619 29-326): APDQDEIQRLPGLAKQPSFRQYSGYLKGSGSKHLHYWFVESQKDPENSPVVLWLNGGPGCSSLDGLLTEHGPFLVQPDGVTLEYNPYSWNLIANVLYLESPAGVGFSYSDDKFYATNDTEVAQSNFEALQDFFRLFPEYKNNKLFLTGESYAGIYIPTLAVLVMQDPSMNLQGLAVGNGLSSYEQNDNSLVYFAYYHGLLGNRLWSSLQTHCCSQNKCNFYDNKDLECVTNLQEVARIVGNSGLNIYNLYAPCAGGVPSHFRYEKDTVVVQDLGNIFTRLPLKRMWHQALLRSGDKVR
Recombinant human cathepsin A, sequence (P10619 327-480): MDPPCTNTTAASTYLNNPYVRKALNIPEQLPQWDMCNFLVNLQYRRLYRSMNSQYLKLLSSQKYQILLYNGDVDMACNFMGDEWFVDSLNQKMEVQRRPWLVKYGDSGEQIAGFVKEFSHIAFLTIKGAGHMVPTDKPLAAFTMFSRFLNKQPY

IC50 | SMILES
7.02 µM | COc1ccc(C(=O)N[C@@H](CC(=O)O)c2ccccc2Cl)nc1-c1ccc(C(F)(F)F)cc1F [compound 214]
9.66 µM | COc1ccc(C(=O)N[C@@H](CC(=O)O)c2ccc(C)cc2)nc1-c1ccncc1 [compound 215]
1.29 µM | COc1ccc(C(=O)N[C@@H](CC(=O)O)c2ccc(C)cc2)nc1-c1ccc(C)c(F)c1 [compound 223]
3.39 µM | COc1ccc(C(=O)N[C@@H](CC(=O)O)c2ccc(C)cc2)nc1-c1ccc(C)cc1C [compound 224]
3.26 µM | COc1ccc(C(=O)N[C@@H](CC(=O)O)c2ccc(C)cc2)nc1-c1ccc(F)c(C)c1 [compound 225]
7.63 µM | COc1ccc(C(=O)N[C@@H](CC(=O)O)c2ccc(C)cc2)nc1-c1ccc(F)nc1 [compound 227]
3.96 µM | COc1ccc(C(=O)N[C@@H](CC(=O)O)c2ccc(C)cc2)nc1-c1ccccc1C(=O)N(C)C [compound 228]
2.33 µM | COc1cc(Cl)ccc1-c1nc(C(=O)N[C@@H](CC(=O)O)c2ccc(C)cc2)ccc1OC [compound 232]
2.24 µM | COc1ccc(Cl)cc1-c1nc(C(=O)N[C@@H](CC(=O)O)c2ccc(C)cc2)ccc1OC [compound 233]
3.57 µM | COc1ccc(C(=O)N[C@@H](CC(=O)O)c2ccc(C)cc2)nc1-c1cc(C(F)(F)F)ccc1F [compound 236]
3.54 µM | COc1ccc(C(=O)N[C@@H](CC(=O)O)c2ccc(C)cc2)nc1-c1ccc(C)o1 [compound 237]
1.16 µM | COc1ccc(F)c(-c2nc(C(=O)N[C@@H](CC(=O)O)c3ccc(C)cc3)ccc2OC)c1 [compound 239]
> 10 µM | COc1ccc(C(C)(C)C)cc1-c1nc(C(=O)N[C@@H](CC(=O)O)c2ccc(C)cc2)ccc1OC [compound 240]
4.48 µM | COc1ccc(C(=O)N[C@@H](CC(=O)O)c2ccc(C)cc2)nc1-c1ccc(Cl)c(F)c1 [compound 246]
8.43 µM | COc1ccc(C(=O)N[C@@H](CC(=O)O)c2ccc(C)cc2)nc1-c1cc(C)cnc1Cl [compound 247]
8.71 µM | COc1ccc(C(=O)N[C@@H](CC(=O)O)c2ccc(C)cc2)nc1-c1cccc(-c2nnc(C)o2)c1 [compound 249]
8.94 µM | COc1ccc(C(=O)N[C@@H](CC(=O)O)c2ccc(C)cc2)nc1-c1ccc2ccn(C)c2c1 [compound 251]
4.06 µM | COc1ccc(C(=O)N[C@@H](CC(=O)O)c2ccccc2F)nc1-c1cccc(C(F)(F)F)c1 [compound 253]
1.26 µM | COc1ccc(C(=O)N[C@@H](CC(=O)O)c2ccccc2F)nc1-c1ccc(F)cc1 [compound 257]
5.27 µM | COc1ccc(C(=O)N[C@@H](CC(=O)O)c2ccccc2F)nc1-c1ccc(Cl)cc1 [compound 258]

IC50 | SMILES
5.01 µM | COc1ccc(-c2nc(C(=O)N[C@@H](CC(=O)O)c3ccccc3F)ccc2OC)cc1 [compound 259]
5.18 µM | COc1ccc(C(=O)N[C@@H](CC(=O)O)c2ccccc2F)nc1-c1ccc(C)cc1 [compound 260]
1.72 µM | COc1ccc(C(=O)N[C@@H](CC(=O)O)c2ccccc2F)nc1-c1cccc(Cl)c1 [compound 265]
1.26 µM | COc1ccc(C(=O)N[C@@H](CC(=O)O)c2ccccc2F)nc1-c1cccc(F)c1 [compound 266]
1.01 µM | COc1ccc(C(=O)N[C@@H](CC(=O)O)c2ccccc2F)nc1-c1cccc(C)c1 [compound 269]
9.57 µM | COc1ccc(C(=O)N[C@@H](CC(=O)O)c2ccccc2F)nc1-c1cccc(C#N)c1 [compound 273]
8.54 µM | COc1ccc(C(=O)N[C@@H](CC(=O)O)c2ccccc2F)nc1-c1cccc(C(C)=O)c1 [compound 275]
2.16 µM | COc1ccc(C(=O)N[C@@H](CC(=O)O)c2ccccc2F)nc1-c1cccc(-c2ccccc2)c1 [compound 276]
3.85 µM | COc1ccc(C(=O)N[C@@H](CC(=O)O)c2ccccc2F)nc1-c1cc(F)cc(F)c1 [compound 279]
3.12 µM | COc1ccc(C(=O)N[C@@H](CC(=O)O)c2ccccc2F)nc1-c1ccc(F)c(F)c1 [compound 280]
5.4 µM | COc1ccc(C(=O)N[C@@H](CC(=O)O)c2ccccc2F)nc1-c1ccc(C#N)s1 [compound 283]
> 10 µM | COc1ccc(C(=O)N[C@@H](CC(=O)O)c2ccccc2F)nc1-c1cccnc1 [compound 284]
3.81 µM | COc1ccc(C(=O)N[C@@H](CC(=O)O)c2ccccc2F)nc1-c1ccc(C)c(F)c1 [compound 290]
4.02 µM | COc1ccc(C(=O)N[C@@H](CC(=O)O)c2ccccc2F)nc1-c1ccc(C)cc1C [compound 291]
4.13 µM | COc1ccc(C(=O)N[C@@H](CC(=O)O)c2ccccc2F)nc1-c1ccc(F)c(C)c1 [compound 292]
4.51 µM | COc1ccc(C(=O)N[C@@H](CC(=O)O)c2ccccc2F)nc1-c1ccccc1C(=O)N(C)C [compound 295]
1.83 µM | COc1cc(Cl)ccc1-c1nc(C(=O)N[C@@H](CC(=O)O)c2ccccc2F)ccc1OC [compound 299]
4.11 µM | COc1ccc(Cl)cc1-c1nc(C(=O)N[C@@H](CC(=O)O)c2ccccc2F)ccc1OC [compound 300]
3.99 µM | COc1ccc(C(=O)N[C@@H](CC(=O)O)c2ccccc2F)nc1-c1cc(C(F)(F)F)ccc1F [compound 304]

Same assay, conditions: read-out: Activity [μM] (IC50, cathepsin A inhibitory activity)

IC50 | SMILES
2.46 µM | Cc1ccccc1[C@H](CC(=O)O)NC(=O)c1cccc(-c2ccccc2C#N)n1 [compound 157]
14.4 µM | Cc1ccccc1[C@H](CC(=O)O)NC(=O)c1cccc(-c2c(C)noc2C)n1 [compound 159]
1.43 µM | Cc1ccc(-c2cccc(C(=O)N[C@@H](CC(=O)O)c3ccccc3C)n2)c(C)c1 [compound 162]
6.98 µM | Cc1ccccc1[C@H](CC(=O)O)NC(=O)c1cccc(-c2cccc(OCC3CC3)c2)n1 [compound 171]
3.21 µM | Cc1ccccc1[C@H](CC(=O)O)NC(=O)c1cccc(-c2cccc(F)c2C)n1 [compound 172]
1.59 µM | Cc1ccccc1[C@H](CC(=O)O)NC(=O)c1cccc(-c2ccc(C(=O)N(C)C)c(Cl)c2)n1 [compound 174]
2.36 µM | Cc1cc(F)c(-c2cccc(C(=O)N[C@@H](CC(=O)O)c3ccccc3C)n2)cc1Cl [compound 175]
3.32 µM | Cc1ccccc1[C@H](CC(=O)O)NC(=O)c1cccc(-c2cccc(C(C)(C)O)c2)n1 [compound 176, (S)-3-({6-[3-(1-Hydroxy-1-methyl-ethyl)-phenyl]-pyridine-2-carbonyl}-amino)-3-o-tolyl-propionic acid]
5 µM | COc1ccc(C(=O)N[C@@H](CC(=O)O)c2ccc(C)cc2)nc1-c1cccc(C(F)(F)F)c1 [compound 181]
1.01 µM | COc1ccc(C(=O)N[C@@H](CC(=O)O)c2ccc(C)cc2)nc1-c1ccc(Cl)cc1Cl [compound 183]
1.29 µM | COc1ccc(C(=O)N[C@@H](CC(=O)O)c2ccc(C)cc2)nc1-c1ccc(F)cc1 [compound 185]
3.56 µM | COc1ccc(C(=O)N[C@@H](CC(=O)O)c2ccc(C)cc2)nc1-c1ccc(Cl)cc1 [compound 186, (S)-3-{[6-(4-Chloro-phenyl)-5-methoxy-pyridine-2-carbonyl]-amino}-3-p-tolyl-propionic acid]
4.85 µM | COc1ccc(-c2nc(C(=O)N[C@@H](CC(=O)O)c3ccc(C)cc3)ccc2OC)cc1 [compound 187]
4.45 µM | COc1ccc(C(=O)N[C@@H](CC(=O)O)c2ccc(C)cc2)nc1-c1ccc(C)cc1 [compound 188]
4.57 µM | COc1cccc(-c2nc(C(=O)N[C@@H](CC(=O)O)c3ccc(C)cc3)ccc2OC)c1 [compound 191]
2.74 µM | COc1ccc(C(=O)N[C@@H](CC(=O)O)c2ccc(C)cc2)nc1-c1cccc(Cl)c1 [compound 193]
8.83 µM | COc1ccc(C(=O)N[C@@H](CC(=O)O)c2ccc(C)cc2)nc1-c1ccc2ccccc2c1 [compound 195]

IC50 | SMILES
1.71 µM | COc1ccc(C(=O)N[C@@H](CC(=O)O)c2ccc(C)cc2)nc1-c1cccc(C)c1 [compound 197]
8.35 µM | COc1ccc(C(=O)N[C@@H](CC(=O)O)c2ccc(C)cc2)nc1-c1cccc(C(C)=O)c1 [compound 203]
1.4 µM | COc1ccc(C(=O)N[C@@H](CC(=O)O)c2ccc(C)cc2)nc1-c1cccc(-c2ccccc2)c1 [compound 204]
2.65 µM | COc1ccc(C(=O)N[C@@H](CC(=O)O)c2ccc(C)cc2)nc1-c1cc(F)cc(F)c1 [compound 207]
7.42 µM | COc1ccc(C(=O)N[C@@H](CC(=O)O)c2ccc(C)cc2)nc1-c1ccc(F)c(F)c1 [compound 208]
7.52 µM | COc1ccc(C(=O)N[C@@H](CC(=O)O)c2ccc(C)cc2)nc1-c1ccc(C(C)=O)s1 [compound 210]
2.92 µM | COc1ccc(F)c(-c2nc(C(=O)N[C@@H](CC(=O)O)c3ccccc3F)ccc2OC)c1 [compound 307]
> 10 µM | COc1ccc(C(C)(C)C)cc1-c1nc(C(=O)N[C@@H](CC(=O)O)c2ccccc2F)ccc1OC [compound 308]
3.55 µM | COc1ccc(C(=O)N[C@@H](CC(=O)O)c2ccccc2F)nc1-c1ccc(Cl)c(F)c1 [compound 313]
> 10 µM | COc1ccc(C(=O)N[C@@H](CC(=O)O)c2ccccc2F)nc1-c1cccc(-c2nnc(C)o2)c1 [compound 316]
> 10 µM | COc1ccc(C(=O)N[C@@H](CC(=O)O)c2ccccc2F)nc1-c1ccnc(N2CCOCC2)c1 [compound 321]
2.31 µM | COc1ccc(C(=O)N[C@@H](CC(=O)O)c2ccccc2F)nc1-c1cc(C)ccc1Cl [compound 323]
1.27 µM | COc1ccc(C(=O)N[C@@H](CC(=O)O)c2ccccc2F)nc1-c1cccc(F)c1Cl [compound 324]
3.58 µM | COc1ccc(C(=O)N[C@@H](CC(=O)O)c2ccccc2F)nc1-c1ccc(C#N)cc1F [compound 325]
8.46 µM | COc1ccc(C(=O)N[C@@H](CC(=O)O)c2ccccc2F)nc1-c1cccc(C2(O)COC2)c1 [compound 326]
7.32 µM | COc1ccc(C(=O)N[C@@H](CC(=O)O)c2ccccc2F)nc1-c1cccc(C(C)(C)O)c1 [compound 327]
3.74 µM | COc1ccc(C(=O)N[C@@H](CC(=O)O)c2ccccc2Cl)nc1-c1cccc(C(F)(F)F)c1 [compound 329]
